Patent US20150105252A1, “SUBSTITUTED PYRAZOLES AS HERBICIDES” (E I DU PONT DE NEMOURS AND COMPANY, priority 2013, published 2015)
Values joined by “and” are separate entries in the source; they are usually repeats but may differ in a detail not shown here. Equal values may be shown once.

What was measured:
[1] = tested on: Russian thistle; assay: Test C preemergence; assay type: in vivo, Salsola kali
From the text: Seeds of plant species selected from blackgrass (Alopecurus myosuroides), ryegrass, Italian (Italian ryegrass, Lolium multiflorum), wheat (winter wheat, Triticum aestivum), galium (catchweed bedstraw, Galium aparine), corn (Zea mays), crabgrass, large (large crabgrass, Digitaria sanguinalis), foxtail, giant (giant foxtail, Setaria faberii), johnsongrass (Sorghum halepense), lambsquarters (Chenopodium album), morningglory (Ipomoea coccinea), nutsedge, yellow (yellow nutsedge, Cyperus esculentus), pigweed (redroot pigweed, Amaranthus retroflexus), ragweed (common ragweed, Ambrosia elation), soybean (Glycine max), barnyardgrass (Echinochloa crus-galli), oilseed rape (Brassica napus), waterhemp (common waterhemp, Amaranthus rudis), oat, wild (wild oat, Avena fatua), kochia (Kochia scoparia), Surinam grass (Brachiaria decumbens), foxtail, green (green foxtail, Setaria viridis), goosegrass (Eleusine indica), bromegrass, downy (downy bromegrass, Bromus tectorum), nightshade (eastern black nightshade, Solanum ptycanthum), cocklebur (common cocklebur, Xanthium strumarium), cupgrass, woolly (woolly cupgrass, Eriochloa villosa), bermudagrass (Cynodon dactylon), sunflower, (common oilseed sunflower, Helianthus annuus), Russian thistle (Salsola kali), and velvetleaf (Abutilon theophrasti) were planted into a blend of loam soil and sand and treated preemergence with test chemicals formulated in a non-phytotoxic solvent mixture which included a surfactant.
At the same time, plants selected from these crop and weed species and also chickweed (common chickweed, Stellaria media), canarygrass (littleseed canarygrass, Phalaris minor), and deadnettle (henbit deadnettle, Lamium amplexicaule), were planted in pots containing Redi-Earth® planting medium (Scotts Company, 14111 Scottslawn Road, Marysville, Ohio 43041) comprising spaghnum peat moss, vermiculite, wetting agent and starter nutrients and treated with postemergence applications of test chemicals formulated in the same manner. Plants ranged in height from 2 to 18 cm (1- to 4-leaf stage) for postemergence treatments. Treated plants and controls were maintained in a greenhouse for 13 to 15 days, after which time all species were compared to controls and visually evaluated. Plant response ratings, summarized in Table C, are based on a scale of 0 to 100 where 0 is no effect and 100 is complete control. A dash (-) response means no test result.

[2] = tested on: common waterhemp; assay: Test F postemergence; assay type: in vivo, Amaranthus rudis; settings: scale 0 to 100
From the text: (§1) Seeds of plant species selected from corn (Zea mays), soybean (Glycine max), velvetleaf (Abutilon theophrasti), lambsquarters (Chenopodium album), wild poinsettia (Euphorbia heterophylla), pigweed, palmer (palmer pigweed, Amaranthus palmeri), common waterhemp (Amaranthus rudis), surinam grass (Brachiaria decumbens), large crabgrass (Digitaria sanguinalis), crabgrass, Brazil (Brazilian crabgrass, Digitaria horizontalis), fall panicum (Panicum dichotomiflorum), giant foxtail (Setaria faberii), green foxtail (Setaria viridis), goosegrass (Eleusine indica), johnsongrass (Sorghum halepense), common ragweed (Ambrosia elation), barnyardgrass (Echinochloa crus-galli), southern sandbur (Cenchrus echinatus), arrowleaf sida (Sida rhombifolia), Italian ryegrass (Lolium multiflorum), dayflower, VA (Virginia (VA) dayflower, Commelina virginica), field bindweed (Convolvulus arvensis), cocklebur (common cocklebur, Xanthium strumarium), morningglory (Ipomoea coccinea), nightshade (eastern black nightshade, Solanum ptycanthum), kochia (Kochia scoparia), yellow nutsedge (Cyperus esculentus), and hairy beggarticks (Bidens pilosa), were planted into a silt loam soil and treated preemergence with test chemicals formulated in a non-phytotoxic solvent mixture which included a surfactant.
(§2) At the same time, plants from these crop and weed species and also horseweed (Canada horseweed, Conyza canadensis), smartweed (ladysthumb smartweed, Polygonum persicaria), waterhemp_RES1, (ALS & Triazine resistant common waterhemp, Amaranthus rudis), and waterhemp_RES2, (ALS & HPPD resistant common waterhemp, Amaranthus rudis) were treated with postemergence applications of test chemicals formulated in the same manner. Plants ranged in height from 2 to 18 cm for postemergence treatments (1- to 4-leaf stage). Treated plants and controls were maintained in a greenhouse for 14 to 21 days, after which time all species were compared to controls and visually evaluated. Plant response ratings, summarized in Table F, are based on a scale of 0 to 100 where 0 is no effect and 100 is complete control. A dash (-) response means no test result.

[3] = tested on: waterhemp_RES2 (ALS & HPPD resistant common waterhemp); assay: Test F postemergence; assay type: in vivo, Amaranthus rudis; settings: scale 0 to 100
From the text: as §1, §2

[4] = tested on: pigweed, palmer; assay: Test F postemergence; assay type: in vivo, Amaranthus palmeri; settings: scale 0 to 100
From the text: as §1, §2

[5] = tested on: hairy beggarticks; assay: Test F postemergence; assay type: in vivo, Bidens pilosa; settings: scale 0 to 100
From the text: as §1, §2

[6] = tested on: Italian ryegrass; assay: Test F postemergence; assay type: in vivo, Lolium multiflorum; settings: scale 0 to 100
From the text: as §1, §2

[7] = tested on: corn; assay: Test F postemergence; assay type: in vivo, Zea mays; settings: scale 0 to 100
From the text: as §1, §2

[8] = tested on: southern sandbur; assay: Test F postemergence; assay type: in vivo, Cenchrus echinatus; settings: scale 0 to 100
From the text: as §1, §2

[9] = tested on: fall panicum; assay: Test F preemergence; assay type: in vivo, Panicum dichotomiflorum
From the text: as §1, §2

[10] = tested on: smartweed; assay: Test F postemergence; assay type: in vivo, Polygonum persicaria; settings: postemergence, 62 g ai/ha; scale 0 to 100
From the text: as §1, §2

[11] = tested on: dayflower, VA; assay: Test F postemergence; assay type: in vivo, Commelina virginica; settings: scale 0 to 100
From the text: as §1, §2

[12] = tested on: fall panicum; assay: Test F postemergence; assay type: in vivo, Panicum dichotomiflorum; settings: scale 0 to 100
From the text: as §1, §2

SMILES: CCc1cc(C(=O)NOC(C)C)nn1Cc1cccc(OC(F)(F)F)c1 [Compound 70]
- Plant response rating (scale of 0 to 100), Russian Thistle ([1]; Preemergence, 250 g ai/ha): 80
- Russian Thistle plant response rating ([1]; preemergence, 31 g ai/ha, scale 0 to 100 (0 no effect, 100 complete control), 13 to 15 days): 65
- Plant response rating, Russian Thistle ([1]; preemergence, 62 g ai/ha, 13 to 15 days, scale 0 to 100, 0 = no effect, 100 = complete control): 75
- Russian Thistle plant response rating ([1]; preemergence, 125 g ai/ha, scale 0 to 100, 0 is no effect, 100 is complete control): 75

SMILES: CCc1cc(-c2ccc(C(F)(F)F)cc2)nn1Cc1ccnc(C(F)(F)F)c1 [Compound 110]
- Plant response rating, Common Waterhemp ([2]; Postemergence, 16 g ai/ha): 95
- Plant response rating, Common Waterhemp ([2]; Postemergence, 31 g ai/ha): 100
- Plant response rating, Common Waterhemp ([2]; Postemergence, 125 g ai/ha): 100
- Plant response rating, Common Waterhemp ([2]; postemergence, 62 g ai/ha): 60 and 90
- Plant response rating, Common Waterhemp ([2]; postemergence, 8 g ai/ha): 90
- Plant response rating, Waterhemp_RES2 ([3]; Postemergence, 16 g ai/ha): 90
- Plant response rating, Waterhemp_RES2 ([3]; Postemergence, 31 g ai/ha): 98
- Plant response rating, Waterhemp_RES2 ([3]; Postemergence, 125 g ai/ha): 100
- Plant response rating, Waterhemp_RES2 ([3]; postemergence, 62 g ai/ha): 60 and 98
- Plant response rating, Waterhemp_RES2 ([3]; postemergence, 8 g ai/ha): 85
- Plant response rating, Pigweed, Palmer ([4]; Postemergence, 16 g ai/ha): 85
- Plant response rating, Pigweed, Palmer ([4]; Postemergence, 31 g ai/ha): 90
- Plant response rating, Pigweed, Palmer ([4]; Postemergence, 125 g ai/ha): 85
- Plant response rating, Pigweed, Palmer ([4]; postemergence, 62 g ai/ha): 50 and 85
- Plant response rating, Pigweed, Palmer ([4]; postemergence, 8 g ai/ha): 60
- Plant response rating, Hairy Beggarticks ([5]; Postemergence, 16 g ai/ha): 50
- Plant response rating, Hairy Beggarticks ([5]; Postemergence, 31 g ai/ha): 60
- Plant response rating, Hairy Beggarticks ([5]; Postemergence, 125 g ai/ha): 70
- Plant response rating, Hairy Beggarticks ([5]; postemergence, 62 g ai/ha): 50 and 60
- Plant response rating, Hairy Beggarticks ([5]; postemergence, 8 g ai/ha): 30
- Plant response rating, Italian Ryegrass ([6]; Postemergence, 16 g ai/ha): 20
- Plant response rating, Italian Ryegrass ([6]; Postemergence, 31 g ai/ha): 20
- Plant response rating, Italian Ryegrass ([6]; Postemergence, 125 g ai/ha): 30
- Plant response rating, Italian Ryegrass ([6]; postemergence, 8 g ai/ha): 10
- Plant response rating, Corn ([7]; Postemergence, 16 g ai/ha): 10
- Plant response rating, Corn ([7]; Postemergence, 31 g ai/ha): 10
- Plant response rating, Corn ([7]; Postemergence, 125 g ai/ha): 20
- Plant response rating, Corn ([7]; postemergence, 62 g ai/ha): 10 and 15
- Plant response rating, Corn ([7]; postemergence, 8 g ai/ha): 10
- Plant response rating, Southern Sandbur ([8]; Postemergence, 16 g ai/ha): 20
- Plant response rating, Southern Sandbur ([8]; Postemergence, 31 g ai/ha): 25
- Plant response rating, Southern Sandbur ([8]; Postemergence, 125 g ai/ha): 30
- Plant response rating, Southern Sandbur ([8]; postemergence, 8 g ai/ha): 20
- Plant response rating, Fall Panicum ([9]; Preemergence, 31 g ai/ha, scale 0 to 100): 75
- Plant response rating, Fall Panicum ([9]; Preemergence, 62 g ai/ha, scale 0 to 100): 98
- Plant response rating, Fall Panicum ([9]; Preemergence, 125 g ai/ha, scale 0 to 100): 100
- Plant response rating, Fall Panicum ([9]; preemergence, 8 g ai/ha, scale 0 to 100, 100 is complete control): 0
- Plant response rating, Fall Panicum ([9]; preemergence, 16 g ai/ha, scale 0 to 100, 100 is complete control): 5
- Plant response rating, Smartweed [10]: 50
- Plant response rating, Dayflower, VA ([11]; Postemergence, 16 g ai/ha): 50
- Plant response rating, Dayflower, VA ([11]; Postemergence, 31 g ai/ha): 40
- Plant response rating, Dayflower, VA ([11]; Postemergence, 125 g ai/ha): 60
- Plant response rating, Dayflower, VA ([11]; postemergence, 62 g ai/ha): 30 and 60
- Plant response rating, Dayflower, VA ([11]; postemergence, 8 g ai/ha): 25
- Plant response rating, Fall Panicum ([12]; Postemergence, 16 g ai/ha): 10
- Plant response rating, Fall Panicum ([12]; Postemergence, 31 g ai/ha): 20
- Plant response rating, Fall Panicum ([12]; Postemergence, 125 g ai/ha): 30
- Plant response rating, Fall Panicum ([12]; postemergence, 62 g ai/ha): 20
- Plant response rating, Fall Panicum ([12]; postemergence, 8 g ai/ha): 10
